In brackets after ≈: the same amount, converted by molar mass.
Legend:
Norovirus [1] = test: Inhibition of recombinant norovirus VA387 binding to human HBGA H antigen by EIA; type: functional
Norovirus [2] = test: Inhibition of recombinant norovirus Norwalk binding to human HBGA A antigen by EIA; type: functional
Norovirus [3] = test: Inhibition of norovirus VA387 binding to HBGA A type antigen in human saliva at 11.8 uM by EIA; type: functional
Norovirus [4] = test: Inhibition of recombinant norovirus MOH binding to human HBGA A antigen by EIA; type: functional
Norovirus [5] = test: Inhibition of recombinant norovirus VA207 binding to human HBGA Le antigen by EIA; type: functional
Norovirus [6] = test: Inhibition of recombinant norovirus MOH binding to human HBGA B antigen by EIA; type: functional
Norovirus [7] = test: Inhibition of recombinant norovirus Norwalk binding to human HBGA H antigen by EIA; type: functional
Norovirus [8] = test: Inhibition of norovirus recombinant VA387 binding to human HBGA B antigen by EIA; type: functional
[9] = Cytotoxicity against HeLa cells by MTS assay; type: cell-based; conditions: human
[10] = Solubility of the compound; type: physicochemical
Norovirus [11] = test: Inhibition of recombinant norovirus VA387 binding to human HBGA A antigen by EIA; type: functional
Norovirus [12] = test: Inhibition of norovirus VA387 binding to HBGA A type antigen in human saliva at 12.8 uM by EIA; type: functional
Norovirus [13] = test: Inhibition of norovirus VA387 binding to HBGA A type antigen in human saliva at 13.6 uM by EIA; type: functional
Norovirus [14] = test: Inhibition of norovirus VA387 binding to HBGA A type antigen in human saliva at 9.6 uM by EIA; type: functional
Norovirus [15] = test: Inhibition of norovirus VA387 binding to HBGA A type antigen in human saliva at 9.1 uM by EIA; type: functional
Norovirus [16] = test: Inhibition of norovirus VA387 binding to HBGA A type antigen in human saliva at 4.8 uM by EIA; type: functional
Norovirus [17] = test: Inhibition of norovirus VA387 binding to HBGA A type antigen in human saliva at 13.7 uM by EIA; type: functional
Norovirus [18] = test: Inhibition of norovirus VA387 binding to HBGA A type antigen in human saliva at 9.3 uM by EIA; type: functional
Norovirus [19] = test: Inhibition of norovirus VA387 binding to HBGA A type antigen in human saliva at 2.2 uM by EIA; type: functional
Norovirus [20] = test: Inhibition of norovirus VA387 binding to HBGA A type antigen in human saliva at 8.1 uM by EIA; type: functional
Norovirus [21] = test: Inhibition of norovirus VA387 binding to HBGA A type antigen in human saliva at 10.9 uM by EIA; type: functional
Norovirus [22] = test: Inhibition of norovirus VA387 binding to HBGA A type antigen in human saliva at 11.7 uM by EIA; type: functional

Row | SMILES | EC50 (Norovirus [1]) | EC50 (Norovirus [2]) | EC50 (Norovirus [4]) | EC50 (Norovirus [5]) | EC50 (Norovirus [6]) | EC50 (Norovirus [7]) | EC50 (Norovirus [8]) | solubility [10] | EC50 (Norovirus [11]) | CC50 [9] | also measured
1 | CCCCc1ccc(NC(=O)c2ccc(C)cc2)cc1 | 28.2 µM | 53 µM | > 100 µM | > 100 µM | > 100 µM | 47.8 µM | 32.5 µM | 400 µM (≈ 107 µg/mL) | 12.8 µM | 180 µM | inhibition at 12.8 µM (Norovirus [12]): 54.3%
2 | O=C(C(=O)c1ccc(C(=O)c2ccc(C(=O)C(=O)c3ccc(Sc4ccccc4)cc3)cc2)cc1)c1ccc(Sc2ccccc2)cc1 | 26.1 µM | > 100 µM | > 100 µM | > 100 µM | > 100 µM | > 100 µM | 35.3 µM | 400 µM (≈ 265 µg/mL) | 12.8 µM | 263 µM | inhibition at 12.8 µM (Norovirus [12]): 46.1%
3 | Cc1cc(O)c(Sc2c(O)cc(C)cc2C(C)(C)c2ccccc2)c(C(C)(C)c2ccccc2)c1 | 48.1 µM | > 100 µM | > 100 µM | > 100 µM | > 100 µM | > 100 µM | 49.5 µM | 400 µM (≈ 193 µg/mL) | 13.6 µM | 70.6 µM | inhibition at 13.6 µM (Norovirus [13]): 48.9%
4 | CCCOc1ccc(-c2cc(C(=O)N/N=C/c3ccc(OCC)cc3)[nH]n2)cc1 | > 100 µM | > 100 µM | > 100 µM | > 100 µM | > 100 µM | > 100 µM | > 100 µM | > 100 µM | 13.7 µM | 12.3 µM | inhibition at 13.7 µM (Norovirus [17]): 51.1%
5 | O=CC(=O)c1ccc2c(c1)Cc1cc(C(=O)C=O)ccc1-2 | 41.1 µM | > 100 µM | > 100 µM | > 100 µM | > 100 µM | > 100 µM | 44.6 µM | 400 µM (≈ 111 µg/mL) | 9.3 µM | 52.7 µM | inhibition at 9.3 µM (Norovirus [18]): 53.8%
6 | C=C(SCCNC(=O)NCCCCCCNC(=O)NCCSc1ccccc1O)/C(C)=C\C | 14.2 µM | 14.1 µM | > 100 µM | > 100 µM | > 100 µM | 22.6 µM | 13.1 µM | 400 µM (≈ 198 µg/mL) | 8.1 µM | 113 µM | inhibition at 8.1 µM (Norovirus [20]): 59.3%
7 | O=C(/C=C/c1ccc(-c2cc(Cl)cc(Cl)c2)o1)c1cccs1 | > 100 µM | > 100 µM | > 100 µM | > 100 µM | > 100 µM | > 100 µM | > 100 µM | 400 µM (≈ 140 µg/mL) | 10.9 µM | 157 µM | inhibition at 10.9 µM (Norovirus [21]): 49%
8 | Cc1ccc(NC(=O)CC(c2ccccc2)c2ccccc2)cc1C | 47.5 µM | > 100 µM | > 100 µM | > 100 µM | > 100 µM | > 100 µM | > 100 µM | > 100 µM | 11.7 µM | 40.3 µM | inhibition at 11.7 µM (Norovirus [22]): 51.4%

These reach a lower EC50 (Norovirus [1]). Values come first.

Row | EC50 (Norovirus [1]) | EC50 (Norovirus [2]) | EC50 (Norovirus [4]) | EC50 (Norovirus [5]) | EC50 (Norovirus [6]) | EC50 (Norovirus [7]) | EC50 (Norovirus [8]) | solubility [10] | EC50 (Norovirus [11]) | SMILES | CC50 [9] | also measured
9 | 11.9 µM | 22.9 µM | 16.5 µM | > 100 µM | 13.3 µM | 24.5 µM | 18.6 µM | 400 µM (≈ 180 µg/mL) | 4.8 µM | CCOC(=O)C1=C(C)OC(N)=C(C#N)C1c1ccc(OCc2ccc(C)cc2)c([N+](=O)[O-])c1 (stereo not drawn) | 78.6 µM | inhibition at 4.8 µM (Norovirus [16]): 61.1%
10 | 7.6 µM | > 100 µM | > 100 µM | > 100 µM | > 100 µM | > 100 µM | 26 µM | 400 µM (≈ 88.1 µg/mL) | 9.6 µM | Oc1ccc(/C=N/c2nccs2)c(O)c1 | 324 µM | inhibition at 9.6 µM (Norovirus [14]): 45.3%
11 | 7.5 µM | 35 µM | > 100 µM | > 100 µM | > 100 µM | 19.8 µM | 7.9 µM | 400 µM (≈ 182 µg/mL) | 11.8 µM | CC(C)OC(=O)CC(=O)CSc1nc(-c2ccc(F)cc2)cc(-c2cccs2)c1C#N | 220 µM | inhibition at 11.8 µM (Norovirus [3]): 50.9%
12 | 7.2 µM | 18.2 µM | > 100 µM | > 100 µM | > 100 µM | 36.3 µM | 13.5 µM | 400 µM (≈ 165 µg/mL) | 9.1 µM | CCCc1ccc(OCc2ccc(C(=O)N/N=C/c3ccc(Cl)cc3O)o2)cc1 | 46.7 µM | inhibition at 9.1 µM (Norovirus [15]): 62.9%
13 | 6.8 µM | 15.6 µM | > 100 µM | > 100 µM | > 100 µM | 18.9 µM | 5.8 µM | 400 µM | 2.2 µM | CCC[n+]1cc(-c2ccccc2)nc(N2CCOCC2)n1.[I-] | 158 µM | inhibition at 2.2 µM (Norovirus [19]): 49.3%
